Target: T1, full-length C1r (Homo sapiens, UniProt P00736)
T1 construct: purchased Complement Technology (CompTech)
T1 sequence (P00736 18-463 limits assumed): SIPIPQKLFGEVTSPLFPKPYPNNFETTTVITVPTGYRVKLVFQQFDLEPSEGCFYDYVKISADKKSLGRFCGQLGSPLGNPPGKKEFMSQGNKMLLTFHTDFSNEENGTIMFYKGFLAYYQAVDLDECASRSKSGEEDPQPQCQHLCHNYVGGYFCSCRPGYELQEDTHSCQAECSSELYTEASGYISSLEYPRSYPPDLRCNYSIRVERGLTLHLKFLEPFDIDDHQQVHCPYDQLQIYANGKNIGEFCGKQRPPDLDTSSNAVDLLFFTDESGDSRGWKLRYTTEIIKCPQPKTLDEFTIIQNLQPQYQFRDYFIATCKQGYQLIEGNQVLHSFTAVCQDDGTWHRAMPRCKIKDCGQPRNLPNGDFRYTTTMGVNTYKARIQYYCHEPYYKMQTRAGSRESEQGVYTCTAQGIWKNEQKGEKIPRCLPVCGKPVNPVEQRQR
T1 sequence (P00736 464-705 limits assumed): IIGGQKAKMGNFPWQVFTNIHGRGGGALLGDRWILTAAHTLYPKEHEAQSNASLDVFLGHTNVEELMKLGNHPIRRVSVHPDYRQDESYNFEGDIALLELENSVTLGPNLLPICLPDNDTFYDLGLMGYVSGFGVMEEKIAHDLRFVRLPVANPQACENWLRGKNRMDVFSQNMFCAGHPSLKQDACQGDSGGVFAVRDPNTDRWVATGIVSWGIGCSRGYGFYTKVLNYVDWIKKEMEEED
Test: SPR domain mapping, full-length C1r surface
Format: binding
Conditions: duplicate
Source text: Figure 5 Selectivity and mechanistic analysis of CMP-1611 and CMP-1696. (A) Chemical structure of CMP-1611. (B) Chemical structure of CMP-1696. (C) Dose-dependent inhibition by CMP-1611 and CMP-1696 in a classical pathway-specific ELISA. Data were fit with GraphPad Prism using non-linear regression with a log(inhibitor) vs. response model. […] The CMP-778 inhibitory response could not be fit to a dose-response inhibition model. (D) Complement pathway selectivity of CMP-1611 and CMP-1696. Compounds were assessed for their ability to inhibit activation of complement via the lectin and alternative pathways using single doses of 500 μM compound in triplicate. To ensure only lectin pathway activation, 2% (v/v) C1q-depleted serum (CompTech) was used and mannan was used as the activator. To match serum sources and amounts for this assay, the classical pathway assays were repeated here using serum from CompTech at 2% (v/v) final concentration. Alternative pathway activation assays were performed using 20% (v/v) serum (CompTech), alternative pathway buffers, and C3b detection (see Methods and Materials for details). […] We then injected each compound simultaneously over the three surfaces at 500 μM and measured binding responses. […] All sensorgrams were reference and blank subtracted and analyzed using T200 Evaluation Software (GE Healthcare, Chicago, IL, USA).

COCc1nc(-c2ccc(OC3CNC3)cc2)no1 [CMP-1696]
relative SPR binding response, full-length C1r (500 µM compound): high binding

N=C(N)c1ccc2cc(OC(=O)c3ccc(N=C(N)N)cc3)ccc2c1 [Futhan, reference compound]
relative SPR binding response, full-length C1r (10 µM Futhan): bound C1r and C1r-CCP2-SP similarly
